Source: patent US20240294876A1, “METHODS FOR THE EXPANSION OF HUMAN GRANULOCYTE-MACROPHAGE PROGENITORS AND APPLICATIONS THEREOF” (University of Southern California, priority 2021, published 2024)

T1: myeloperoxidase (MPO) (Mus musculus, UniProt P11247)
T1 construct: The supernatants were harvested and MPO activities were measured using the neutrophil MPO activity assay kit; endogenous in cells; host or cells: mouse SCF/2i GMPs, SCF/2i GMP-derived granulocytes and mouse blood neutrophils; MPO measured in culture supernatant after PMA stimulation
T1 sequence (P11247 139-718): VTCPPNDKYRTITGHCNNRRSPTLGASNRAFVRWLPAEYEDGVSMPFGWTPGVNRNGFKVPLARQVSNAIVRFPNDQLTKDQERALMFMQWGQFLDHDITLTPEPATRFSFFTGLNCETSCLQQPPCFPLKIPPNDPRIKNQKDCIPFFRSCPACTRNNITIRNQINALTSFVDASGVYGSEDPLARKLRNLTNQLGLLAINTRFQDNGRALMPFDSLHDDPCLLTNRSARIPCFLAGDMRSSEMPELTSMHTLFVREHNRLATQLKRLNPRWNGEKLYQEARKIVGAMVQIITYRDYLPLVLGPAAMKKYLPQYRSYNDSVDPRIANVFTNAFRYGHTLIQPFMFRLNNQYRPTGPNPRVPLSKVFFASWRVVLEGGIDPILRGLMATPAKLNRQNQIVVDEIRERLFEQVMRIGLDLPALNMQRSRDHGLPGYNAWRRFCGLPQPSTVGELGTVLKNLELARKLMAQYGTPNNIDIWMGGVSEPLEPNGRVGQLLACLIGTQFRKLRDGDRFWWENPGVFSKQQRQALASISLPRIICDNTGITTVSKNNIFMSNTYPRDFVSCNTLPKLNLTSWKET


What was measured:
[1] = test system: bone marrow cells isolated from adult C57BL/6 mice; assay: Small molecule screen for colony formation of mouse bone marrow cells in serum-free N2B27; assay type: cell-based; details: 96-well plates, serum-free N2B27, single small molecule, 7 days in culture
Source text: (§1) (A) Schematic of the experimental design to identify growth factors and small molecules that can promote expansion of mouse bone marrow-derived stem cells. (B) Representative phase-contrast images of mouse bone marrow cells cultured in N2B27 supplemented with the indicated small molecule inhibitors for 7 days. (C) Representative phase-contrast images of mouse bone marrow cells cultured in N2B27 supplemented with SCF plus GDC0879 or SB590885 for 3 passages. (D) Cell growth curves. Bone marrow cells isolated from C57BL/6J mice were plated into 24-well plates at a density of 2×10^5 cells/well and cultured in B7 medium supplemented with the indicated small molecules/growth factor. Cells were counted and passaged every 3 days. Data are represented as mean±SD from three independent experiments. (E) Bone marrow cells isolated from C57BL/6J mice were cultured in B7 medium supplemented with SCF/2i. Cells were passaged every 3 days. Representative phase-contrast pictures showing SCF/2i cells at different passages. (F) Cytogenetic analysis of SCF/2i cells using the GWT banding method. Bone marrow cells isolated from a female C57BL/6J mouse were expanded in SCF/2i for 8 passages before used for cytogenetic analysis. […] (G) Sequential images of individual bone marrow cells during expansion in B7 medium supplemented with SCF/2i. SCF/2i-expanded bone marrow cells were plated into 96-well plates at a density of 50 cells/well and cultured in SCF/2i. Sequential images were taken using the Keyence BZ-X710 microscopy every 24 hours. 15.7±4.0 colonies formed per well on day 4 (n=3×96). Data are represented as mean±SD from three independent experiments.
Based on this finding, it was postulated that many, if not all, types of stem cells can be maintained during long-term in vitro culture by inhibiting signaling pathways responsible for initiating differentiation. […]

mouse GMPs = assay: Ex vivo expansion of mouse bone marrow-derived cells / mouse GMPs; assay type: cell-based; details: for ability to mimic the effect of SKL2001 for the expansion of mouse GMPs: in place of SKL2001; for effect on expansion of mouse GMPs in SCF/2i: Wnt/β-catenin signaling inhibitor added to SCF/2i
Source text: as §1
Mouse GMP derivation, expansion, and differentiation. Cells were cultured at 37° C. in a 5% CO2 water jacket incubator (Thermo Scientific). Bone marrow cells isolated from C57BL/6J, mTmG or CAG-Cas9-EGFP mice were plated into 6-well plates at a density of 2×10^6 cells/well and cultured in 2 mL B7 medium supplemented with 50 ng/mL SCF, 1 μM GDC-0879, and 10 μM SKL2001 (SCF/2i). After 3-4 days, cells were dissociated into single-cell suspension by pipetting up and down and replated into 6-well plates at a density of 2×10^6 cells/well and cultured in 2 mL B7 medium supplemented with SCF/2i. After 2 passages in SCF/2i, the majority of cells were GMPs. GMPs were routinely passaged every 3 days. To induce differentiation, GMPs were plated into 10 cm tissue culture dishes and cultured in RPMI-1640 medium containing 10% FBS and supplemented with either 20 ng/mL M-CSF (for macrophage differentiation) or 20 ng/mL G-CSF (for granulocyte differentiation). GMP-derived macrophages were harvested on day 7 (medium was changed once on day 4) and GMP-derived granulocytes were harvested on day 3 and used for the further experiments.
Development of defined conditions for the long-term ex vivo expansion of hematopoietic stem/progenitor cells. To develop conditions for the long-term expansion of stem or progenitor cells of the hematopoietic system, screening was conducted to identify small molecules and growth factors/cytokines that can promote their ex vivo expansion (see FIG. 3A). Specifically, bone marrow cells isolated from adult C57BL/6 mice were plated into 96-well plates in serum-free N2B27 medium. Then a first-round small molecule screening was performed. It was reasoned that if a small molecule can block differentiation or promote expansion of stem cells, these stem cells should form colonies with a uniform cell morphology. […] Upon passaging, however, no new colonies were formed in culture with any of the 5 small molecule inhibitors. A second-round screening was conducted to identify growth factors/cytokines that could further improve the expansion of the colonies.
More importantly, these cells could be expanded robustly at clonal density (see FIG. 3G).
SCF/2i-expanded cells are GMPs. […]

myeloperoxidase (MPO) = target: T1, myeloperoxidase (MPO); assay: Myeloperoxidase (MPO) activity assay in SCF/2i GMP-derived granulocytes and blood neutrophils; assay type: cell-based; details: 100 nM for 2 hours
Description: (F) ELISA analysis of cytokine secretion and MPO activity measurement in the indicated cells stimulated with 500 ng/ml LPS for 6 hours (for ELISA assay) or 100 nM PMA for 2 hours (for MPO assay). Data are represented as mean±SD from three independent experiments. Ctrl, no treatment control; ns, not significant.
Myeloperoxidase (MPO) assay. SCF/2i GMPs, blood neutrophils and SCF/2i GMP-derived granulocytes were plated into 96-well plates at a density of 2×10^4 cells/well and cultured in 100 μl RPMI 1640 medium supplemented with 10% FBS. […] The supernatants were harvested and MPO activities were measured using the neutrophil MPO activity assay kit (Cayman, 600620) according to the manufacturer's instructions.

SCF/2i GMPs = assay: In vitro differentiation of SCF/2i GMPs, flow cytometry; assay type: cell-based, mouse
Description: (A) Immunofluorescence and flow cytometry analysis of CD11b and F4/80 expression in cells differentiated from SCF/2i GMPs after treatment with M-CSF for 7 days. Flow cytometry data are represented as mean±SD from three independent experiments. (B) ELISA analysis of cytokine secretion in bone marrow (BM) and SCF/2i GMP-derived macrophages stimulated with 500 ng/ml LPS for 6 hours. Data are represented as mean±SD from three independent experiments. (C) Phagocytosis analysis of SCF/2i GMP-derived macrophages by incubating with FITC-labeled latex beads for 1 hour. Upper panel, a representative fluorescent image (green, FITC-labeled beads; blue, macrophage cell nuclei). Lower panel, flow cytometry analysis of SCF/2i GMP-derived macrophages incubated with (red) or without (blue) FITC-labeled latex beads. Flow cytometry data are represented as mean±SD from three independent experiments. (D) Time-lapse images of tdTomato-positive SCF/2i GMP-derived macrophages incubated with GFP labeled E. coli. The numbers on the images indicate the times in minutes. Arrows and arrowheads indicate the bacteria engulfed by macrophages. (E) Giemsa staining (upper panel) and flow cytometry analysis (lower panel) of SCF/2i GMPs treated with PBS or G-CSF for 3 days. Flow cytometry data are represented as mean±SD (n=5). […] A total of 192×3 wells from three independent experiments were counted for each group. […]

| Molecule | formation of colonies with uniform cell morphology [1] | ability to mimic the effect of SKL2001 for the expansion of mouse GMPs (mouse GMPs) | also measured |
| --- | --- | --- | --- |
| Cc1cccc(-c2nn(C(=S)Nc3ccccc3)cc2-c2ccnc3ccccc23)n1 [A-8301] | clusters of colonies were observed being formed | – | – |
| Cc1c[nH]c(-c2cnc(NCCNc3ccc(C#N)cn3)nc2-c2ccc(Cl)cc2Cl)n1 [CHIR99021] | – | could not mimic the effect of SKL2001 | – |
| Cc1cc([N+](=O)[O-])ccc1NS(=O)(=O)c1cc(Cl)ccc1Cl [FH535] | – | – | effect on expansion of mouse GMPs in SCF/2i (mouse GMPs): not affected |
| O=C(Nc1cccc2cccnc12)c1ccc(N2C(=O)[C@@H]3[C@H](C2=O)[C@@H]2C=C[C@H]3C2)cc1 [IWR1] | clusters of colonies were observed being formed | – | effect on expansion of mouse GMPs in SCF/2i (mouse GMPs): not affected |
| CCCCCCCCCCCCCC(=O)O[C@@H]1[C@@H](C)[C@@]2(O)[C@@H](C=C(CO)C[C@]3(O)C(=O)C(C)=C[C@@H]23)[C@@H]2C(C)(C)[C@]12OC(C)=O [PMA, phorbol myristate acetate] | – | – | MPO activity upon activation (myeloperoxidase (MPO)): significantly increased |
| C[S+]([O-])c1ccc(-c2nc(-c3ccncc3)c(-c3ccc(F)cc3)[nH]2)cc1 (centres unmarked) [SB203580] | clusters of colonies were observed being formed | – | – |
| COc1cccc(-c2cc(NCc3ccc4c(c3)OCO4)nc(N)n2)c1 [Wnt agonist 1] | – | could not mimic the effect of SKL2001 | – |
| Wnt3a | – | could not mimic the effect of SKL2001 | – |
| M-CSF: macrophage differentiation factor (protein, UniProt P09603 33-554, looked up) Macrophage colony-stimulating …: EEVSEYCSHMIGSGHLQSLQRLIDSQMETSCQITFEFVDQEQLKDPVCYLKKAFLLVQDIMEDTMRFRDNTPNAIAIVQLQELSLRLKSCFTKDYEEHDKACVRTFYETPLQLLEKVKNVFNETKNLLDKDWNIFSKNCNNSFAECSSQDVVTKPDCNCLYPKAIPSSDPASVSPHQPLAPSMAPVAGLTWEDSEGTEGSSLLPGEQPLHTVDPGSAKQRPPRSTCQSFEPPETPVVKDSTIGGSPQPRPSVGAFNPGMEDILDSAMGTNWVPEEASGEASEIPVPQGTELSPSRPGGGSMQTEPARPSNFLSASSPLPASAKGQQPADVTGTALPRVGPVRPTGQDWNHTPQKTDHPSALLRDPPEPGSPRISSLRPQGLSNPSTLSAQPQLSRSHSSGSVLPLGELEGRRSTRDRRSPAEPEGGPASEGAARPLPRFNSVPLTDTGHERQSEGSFSPQLQESVFHLLVPSVILVLLAVGGLLFYRWRRRSHQEPQRADSPLEQPEGSPLTQDDRQVELPV | – | – | cells positive for both F4/80 and CD11b (SCF/2i GMPs; SCF/2i GMPs treated for 7 days): more than 99% |
| G-CSF: granulocyte colony stimulating factor (protein, UniProt P09919 31-207, looked up) Granulocyte …: TPLGPASSLPQSFLLKCLEQVRKIQGDGAALQEKLVSECATYKLCHPEELVLLGHSLGIPWAPLSSCPSQALQLAGCLSQLHSGLFLYQGLLQALEGISPELGPTLDTLQLDVADFATTIWQQMEELGMAPALQPTQGAMPAFASAFQRRAGGVLVASHLQSFLEVSYRVLRHLAQP | – | – | cells Ly6G+CD115− (SCF/2i GMPs; SCF/2i GMPs treated for 3 days): more than 80% |
